In one assay the target is Flpin-293-PDE4B2 cells (Homo sapiens, UniProt Q07343). In words: cell-based. As to conditions: for inhibition at 0.01 µM: read-out: Cell Inhibition % @10 nM, 10 nM, Flpin-293-PDE4B2 cells; for inhibition at 0.1 µM: read-out: Cell Inhibition % @100 nM, 100 nM, Flpin-293-PDE4B2 cells; for inhibition at 0.001 µM: read-out: Cell Inhibition % @1 nM, 1 nM, Flpin-293-PDE4B2 cells.

Assay [1] has as its target T1, PDE4B2 (Homo sapiens, UniProt Q07343). In words: biochemical. Conditions: for inhibition at 0.01 µM: read-out: PDE4B2 Enzyme Inhibition % @10 nM; for inhibition at 0.1 µM: read-out: PDE4B2 Enzyme Inhibition % @100 nM.
Experimental: (§1) All compounds were dissolved in DMSO into 10 mM or 20 mM stock solutions. The compound to be tested was diluted with DMSO in a 3-fold gradient. 20 nL/well of the compound or a DMSO control was transferred to a 384-well plate by using Echo 550 instrument. The plate was sealed with a membrane and centrifuged for 1 minute. A 2× enzyme solution was prepared with an assay buffer, and 2 uL/well of the 2× enzyme solution was added, followed by equilibration at room temperature for 10 minutes. A 2× Cyclic-3′,5′-AMP substrate solution was prepared with an assay buffer, and 2 uL/well of the 2× substrate solution was added, followed by incubation at room temperature for 60 minutes. 4 μL of AMP-glo reagent was added, followed by incubation at room temperature for 60 minutes. 8 ul of an AMP detection solution was added, followed by incubation at room temperature for 60 minutes. An RLU value was read on Envision 2105 plate reader. The RLU value represents the concentration of the product AMP. Inhibition rate %=(1−(RLUpositive control−RLUcomnpound)/(RLUpositive control−RLUnegative control))*100. The IC50 value was then calculated by Graphpad 8.0 software using Y=Bottom+(Top−Bottom)/(1+10^((LogIC50−X)*HillSlope)).
Another assay has as its target PDE4D2 (Homo sapiens, UniProt Q08499). Kind of assay: PDE4D2 enzyme experiment (AMP-Glo). Conditions: read-out: PDE4D2 IC50 Binding; enzyme assay.
Assay [2] concerns the target T1, PDE4B2. As to conditions: read-out: PDE4B2 IC50; enzyme assay.
Experimental: as §1

The structures appear in SMILES notation. pIC50: −log10 of the molar value.

T1 sequence (Q07343 1-564 isoform Q07343-2, species assumed): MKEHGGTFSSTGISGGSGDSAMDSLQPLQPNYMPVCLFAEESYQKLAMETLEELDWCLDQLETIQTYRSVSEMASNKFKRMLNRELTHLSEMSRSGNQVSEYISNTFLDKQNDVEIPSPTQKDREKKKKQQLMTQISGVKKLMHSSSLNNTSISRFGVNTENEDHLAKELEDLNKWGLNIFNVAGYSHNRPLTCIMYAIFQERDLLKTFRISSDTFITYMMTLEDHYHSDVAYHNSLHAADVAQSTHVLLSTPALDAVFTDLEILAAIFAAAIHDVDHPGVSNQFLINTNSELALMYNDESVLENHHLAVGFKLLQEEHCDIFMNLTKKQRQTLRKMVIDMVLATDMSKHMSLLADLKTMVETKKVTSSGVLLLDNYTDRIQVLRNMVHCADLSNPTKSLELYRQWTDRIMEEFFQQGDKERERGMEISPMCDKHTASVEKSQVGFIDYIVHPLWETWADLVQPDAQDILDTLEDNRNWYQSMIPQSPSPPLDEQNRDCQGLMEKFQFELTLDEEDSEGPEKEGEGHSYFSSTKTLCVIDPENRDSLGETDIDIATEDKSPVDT
Flpin-293-PDE4B2 cells, sequence (Q07343 1-564 isoform Q07343-2): as the sequence (Q07343 1-564 isoform Q07343-2, species assumed) above
PDE4D2, sequence (Q08499 303-809 limits assumed): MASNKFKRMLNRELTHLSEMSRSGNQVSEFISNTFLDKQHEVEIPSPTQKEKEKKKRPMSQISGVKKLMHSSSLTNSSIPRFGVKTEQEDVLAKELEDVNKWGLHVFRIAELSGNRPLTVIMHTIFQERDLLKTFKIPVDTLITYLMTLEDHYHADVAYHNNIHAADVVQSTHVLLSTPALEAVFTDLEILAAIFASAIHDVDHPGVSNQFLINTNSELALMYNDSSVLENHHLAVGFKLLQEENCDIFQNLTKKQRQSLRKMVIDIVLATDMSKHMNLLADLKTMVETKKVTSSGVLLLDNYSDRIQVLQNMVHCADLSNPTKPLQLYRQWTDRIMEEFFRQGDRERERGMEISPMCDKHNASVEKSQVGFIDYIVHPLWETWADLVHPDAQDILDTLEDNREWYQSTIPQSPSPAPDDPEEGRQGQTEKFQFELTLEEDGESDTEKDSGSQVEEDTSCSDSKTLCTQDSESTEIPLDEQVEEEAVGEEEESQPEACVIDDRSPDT
Experimental for PDE4D2: as §1

Consider `[O-][S+]1CCc2nc(N3Cc4ccc(Cl)cc4C3)nc(NC3(CO)CCC3)c21` (centres unmarked) [Compound 33], for which, at Flpin-293-PDE4B2 cells, the inhibition – broadly, the drop in the measured response relative to a control, in per cent – at 0.01 µM came to 9% and the inhibition at 0.1 µM worked out at 33.2%. For the same compound, on PDE4B2 [1], the inhibition at 0.01 µM came to 72.3% and the inhibition at 0.1 µM stood at 98.6%.
Regarding `[O-][S+]1CCc2nc(N3CCc4ccsc4C3)nc(NC3(CO)CCC3)c21` (centres unmarked) [Compound 36], on Flpin-293-PDE4B2 cells, the inhibition at 0.01 µM amounted to 18.1% and the inhibition at 0.1 µM was determined as 66.6%. Moreover, at PDE4B2 [1], the inhibition at 0.01 µM turned out to be 74.5% and the inhibition at 0.1 µM stood at 99%.
Taken in the same sequence, the figures for `[O-][S+]1CCc2nc(N3CCc4ccc(Br)cc4CC3)nc(NC3(CO)CCC3)c21` (centres unmarked) [Compound 46] were 69.6%, 99%, 98.9% and 100%.
With `COc1ccc2c(c1)CCN(c1nc3c(c(NC4(CO)CCC4)n1)[S+]([O-])CC3)CC2` (centres unmarked) [Compound 47], at PDE4B2 [1], the inhibition at 0.01 µM came out at 98.4% and the inhibition at 0.1 µM is 100%.
As to `[O-][S+]1CCc2nc(N3CCc4sc(Br)cc4C3)nc(NC3(CO)CCC3)c21` (centres unmarked) [Compound 55], the inhibition at 0.01 µM at Flpin-293-PDE4B2 cells is 52.8%; at PDE4B2 [1] it was 93.3%. The inhibition at 0.1 µM at Flpin-293-PDE4B2 cells was determined as 93.4%; on PDE4B2 [1], 99.9%.
For `Cn1nc2c(c1Cl)CN(c1nc3c(c(NC4(CO)CCC4)n1)[S+]([O-])CC3)CC2` (centres unmarked) [Compound 58], in that order: 15.9%, 68.7%, 57.1% and 97.5%.
With `O=[N+]([O-])c1ccc2c(c1)CN(c1nc3c(c(NC4(CO)CCC4)n1)[S+]([O-])CC3)C2` (centres unmarked) [Compound 61], on Flpin-293-PDE4B2 cells, the inhibition at 0.01 µM stood at 17.7% and the inhibition at 0.1 µM stood at 55.2%. At PDE4B2 [1], the inhibition at 0.01 µM was 70.9% and the inhibition at 0.1 µM stood at 98.2%.
In the case of `[O-][S+]1CCc2nc(N3Cc4ccc(C(F)(F)F)cc4C3)nc(NC3(CO)CCC3)c21` (centres unmarked) [Compound 62], at Flpin-293-PDE4B2 cells, the inhibition at 0.01 µM amounted to 29.5% and the inhibition at 0.1 µM amounted to 69.1%. Also, at PDE4B2 [1], the inhibition at 0.01 µM was found to be 83.8% and the inhibition at 0.1 µM turned out to be 101%.
Consider `CN1C[C@@H](Nc2nc(N3CCc4cc(N5CCCC5)ccc4C3)nc3c2[S+]([O-])CC3)CCC1=O` (some centres unmarked) [Compound 185], for which, on Flpin-293-PDE4B2 cells, the inhibition at 0.001 µM is 75.3%, the inhibition at 0.01 µM was found to be 100% and the inhibition at 0.1 µM stood at 101%. Moreover, the negative logarithm of the IC50 (pIC50) (as a rule, −log10 of the IC50, conventionally taken in molar units) on PDE4D2 is 10.58. In addition, the pIC50 on PDE4B2 [2] was 10.60.
For `[O-][S+]1CCc2nc(N3CCc4cc(N5CCCC5)ccc4C3)nc(NC3(CO)CC3)c21` (centres unmarked) [Compound 186], on Flpin-293-PDE4B2 cells, the inhibition at 0.001 µM came to 24.7%, the inhibition at 0.01 µM was found to be 93.2% and the inhibition at 0.1 µM turned out to be 101%. Also, the pIC50 at PDE4D2 was 9.81. For the same compound, at PDE4B2 [2], the negative-log IC50 (pIC50) was 10.19.
With `O=S1(=O)CCC(Nc2nc(N3CCc4cc(N5CCCC5)ccc4C3)nc3c2[S+]([O-])CC3)CC1` (centres unmarked) [Compound 187], on Flpin-293-PDE4B2 cells, the inhibition at 0.001 µM amounted to 25.3%, the inhibition at 0.01 µM came to 93.8% and the inhibition at 0.1 µM is 101%. The negative logarithm of the IC50 (pIC50) at PDE4D2 was 9.94. On PDE4B2 [2], the pIC50 is 9.35.
On to `[O-][S+]1CCc2nc(N3CCc4cc(N5CCCC5)ccc4C3)nc(N3CCC[C@H]3CO)c21` (some centres unmarked) [Compound 188], for which, on Flpin-293-PDE4B2 cells, the inhibition at 0.001 µM amounted to 8.72%, the inhibition at 0.01 µM was determined as 39.6% and the inhibition at 0.1 µM stood at 96.6%. Also, the pIC50 on PDE4D2 is 9.14. In addition, on PDE4B2 [2], the pIC50 is 9.41.
Taken in the same sequence, the figures for `[O-][S+]1CCc2nc(N3CCc4cc(N5CCCC5)ccc4C3)nc(NC3CCOCC3)c21` (centres unmarked) [Compound 189] were 24.4%, 93.5%, 101%, 9.84 and 10.18.
With `Cn1cc(CNc2nc(N3CCc4cc(N5CCCC5)ccc4C3)nc3c2[S+]([O-])CC3)cn1` (centres unmarked) [Compound 190], on Flpin-293-PDE4B2 cells, the inhibition at 0.001 µM came out at 3.93%, the inhibition at 0.01 µM stood at 47.1% and the inhibition at 0.1 µM turned out to be 96.7%. Also, at PDE4D2, the negative-log IC50 (pIC50) was 9.24. In addition, the negative logarithm of the IC50 (pIC50) on PDE4B2 [2] was 9.77.
Taken in the same sequence, the figures for `[O-][S+]1CCc2nc(N3CCc4cc(N5CCCC5)ccc4C3)nc(Nc3cnn(CCO)c3)c21` (centres unmarked) [Compound 191] were 8.9%, 35.2%, 94.3%, 9.07 and 9.74.
Consider `[O-][S+]1CCc2nc(N3CCc4cc(N5CCCC5)ccc4C3)nc(Nc3cnn(C4COC4)c3)c21` (centres unmarked) [Compound 192], for which, at Flpin-293-PDE4B2 cells, the inhibition at 0.001 µM is 15.4%, the inhibition at 0.01 µM worked out at 60.3% and the inhibition at 0.1 µM stood at 99.2%. The pIC50 on PDE4D2 is 9.35. Moreover, the negative logarithm of the IC50 (pIC50) at PDE4B2 [2] was 9.85.
For `COc1nn(C)cc1Nc1nc(N2CCc3cc(N4CCCC4)ccc3C2)nc2c1[S+]([O-])CC2` (centres unmarked) [Compound 193], on Flpin-293-PDE4B2 cells, the inhibition at 0.001 µM is 4.88%, the inhibition at 0.01 µM stood at 38.2% and the inhibition at 0.1 µM came to 96%. In addition, the negative logarithm of the IC50 (pIC50) on PDE4D2 was 8.89. In addition, the pIC50 at PDE4B2 [2] was 9.38.
Take `[O-][S+]1CCc2nc(N3CCc4cc(N5CCCC5)ccc4C3)nc(Nc3cn[nH]c3)c21` (centres unmarked) [Compound 194]: on Flpin-293-PDE4B2 cells, the inhibition at 0.001 µM came out at 4.28%, the inhibition at 0.01 µM came to 33.6% and the inhibition at 0.1 µM stood at 92.9%. Moreover, on PDE4D2, the pIC50 was 8.97. Also, the pIC50 at PDE4B2 [2] was 9.48.
As for `COC(=O)N1CC[C@H](Nc2nc(N3CCc4cc(N5CCCC5)ccc4C3)nc3c2[S+]([O-])CC3)C1` (some centres unmarked) [Compound 196], at Flpin-293-PDE4B2 cells, the inhibition at 0.001 µM was 23.7%, the inhibition at 0.01 µM was 89.5% and the inhibition at 0.1 µM worked out at 100%. Moreover, the pIC50 at PDE4D2 was 9.61. At PDE4B2 [2], the negative logarithm of the IC50 (pIC50) is 10.16.
Take `[O-][S+]1CCc2nc(N3CCc4cc(N5CCCC5)ccc4C3)nc(NCCO)c21` (centres unmarked) [Compound 198]: on Flpin-293-PDE4B2 cells, the inhibition at 0.001 µM was found to be 18.1%, the inhibition at 0.01 µM is 67.4% and the inhibition at 0.1 µM is 97.7%. In addition, the negative-log IC50 (pIC50) at PDE4D2 was 8.75. The pIC50 on PDE4B2 [2] is 9.22.
`C[C@H]1c2ccc(N3CCCC3)cc2CCN1c1nc2c(c(NC3(CO)COC3)n1)[S+]([O-])CC2` (some centres unmarked) [Compound 200]: on Flpin-293-PDE4B2 cells, the inhibition at 0.001 µM worked out at 14.7%, the inhibition at 0.01 µM amounted to 74.4% and the inhibition at 0.1 µM amounted to 99.9%. Further, on PDE4D2, the pIC50 is 9.92. The negative-log IC50 (pIC50) on PDE4B2 [2] is 9.93.
For `C[C@H]1c2ccc(N3CCCC3)cc2CCN1c1nc2c(c(N[C@@H]3CC[C@H]3O)n1)[S+]([O-])CC2` (some centres unmarked) [Compound 201], in that order: 7.33%, 72.3%, 99.9%, 9.22 and 9.71.
Take `C[C@H]1c2ccc(N3CCCC3)cc2CCN1c1nc2c(c(NC3(CO)CCOCC3)n1)[S+]([O-])CC2` (some centres unmarked) [Compound 212]: at Flpin-293-PDE4B2 cells, the inhibition at 0.001 µM came to 3.24%, the inhibition at 0.01 µM was found to be 34.6% and the inhibition at 0.1 µM is 97.5%. The negative-log IC50 (pIC50) at PDE4D2 was 8.90. Moreover, the negative-log IC50 (pIC50) at PDE4B2 [2] is 9.02.
Taken in the same sequence, the figures for `COc1nn(C)cc1Nc1nc(N2CCc3cc(N4CCCC4)ccc3[C@@H]2C)nc2c1[S+]([O-])CC2` (some centres unmarked) [Compound 216] were 11.7%, 50.4%, 98.2%, 9.12 and 9.64.

The values are drawn from patent publication US20260285880A1, “SUBSTITUTED DIHYDROTHIENOPYRIMIDINE COMPOUND, PREPARATION METHOD THEREFOR, AND USE THEREOF” (SHANGHAI YIDI BIOTECHNOLOGY CO., LTD., priority 2023, published 2026).
